Data taken from ChEMBL document CHEMBL2021873, “Blocking HIV-1 entry by a gp120 surface binding inhibitor” (Bioorg Med Chem Lett, 2012).
Activity calls are given as the source filed them. The rule behind the calls is not given here.

Tests used:
[1] = system: Human immunodeficiency virus 1; test: Antiviral activity against Human immunodeficiency virus 1 Clade C ZM197M.PB7 infected in human TZM-bl cells after 2 days by luciferase reporter gene analysis; assay type: functional, organism-based; details: Human immunodeficiency virus 1, Clade C ZM197M.PB7, TZM-bl, 48 h
[2] = system: Human immunodeficiency virus 1; test: Antiviral activity against BMS-378806-resistant Human immunodeficiency virus 1 YU-2 T/P; assay type: functional; details: Human immunodeficiency virus type 1 (isolate YU2)
[3] = system: Human immunodeficiency virus 1; test: Competitive inhibition of Human immunodeficiency virus 1 3B gp120 V3 loop assessed as blockade of 447-52D antibody binding by ELISA
[4] = system: Human immunodeficiency virus 1; test: Antiviral activity against BMS-378806-resistant Human immunodeficiency virus 1 DH012 T/P; assay type: functional, organism-based
COS = test: (§1) Inhibition of Human immunodeficiency virus 1 3B gp120 expressed in african green monkey COS cells assessed as inhibition of […] between gp120 and CD4 expressed on human TZM-bl cells by ELISA; assay type: cell-based
[5] = system: Human immunodeficiency virus 1; test: Antiviral activity against Human immunodeficiency virus 1 DH012; assay type: functional, organism-based
[6] = system: Human immunodeficiency virus 1; test: Antiviral activity against Human immunodeficiency virus 1 Clade C ZM109F.PB4 infected in human TZM-bl cells after 2 days by luciferase reporter gene analysis; assay type: functional, organism-based; details: Human immunodeficiency virus 1, Clade C ZM109F.PB4, TZM-bl, 48 h
[7] = system: Human immunodeficiency virus 1; test: Antiviral activity against Human immunodeficiency virus 1 Clade B RHPA4259.7 infected in human TZM-bl cells after 2 days by luciferase reporter gene analysis; assay type: functional, organism-based; details: Human immunodeficiency virus 1, Clade B RHPA4259.7, TZM-bl, 48 h
[8] = system: Human immunodeficiency virus 1; test: Antiviral activity against Human immunodeficiency virus 1 Clade B REJO4541.67 infected in human TZM-bl cells after 2 days by luciferase reporter gene analysis; assay type: functional, organism-based; details: Human immunodeficiency virus 1, Clade B REJO4541.67, TZM-bl, 48 h
[9] = system: Human immunodeficiency virus 1; test: Antiviral activity against Human immunodeficiency virus 1 3B infected in human TZM-bl cells assessed as inhibition of viral replication at 0.33 uM by luminometric analysis; assay type: functional, organism-based; details: TDE = time-dependent effect
[10] = system: Human immunodeficiency virus 1; test: Competitive inhibition of Human immunodeficiency virus 1 3B gp120 V3 loop assessed as blockade of PK70 antibody binding by ELISA
[11] = system: Human immunodeficiency virus 1; test: Antiviral activity against Human immunodeficiency virus 1 YU-2; assay type: functional; details: isolate YU2
[12] = system: Human immunodeficiency virus 1; test: Antiviral activity against Human immunodeficiency virus 1 Clade C Du151.2 infected in human TZM-bl cells after 2 days by luciferase reporter gene analysis; assay type: functional, organism-based; details: Human immunodeficiency virus 1, Clade C Du151.2, TZM-bl, 48 h
[13] = system: Human immunodeficiency virus 1; test: Antiviral activity against Human immunodeficiency virus 1 Clade C Du422.1 infected in human TZM-bl cells after 2 days by luciferase reporter gene analysis; assay type: functional, organism-based; details: Human immunodeficiency virus 1, Clade C Du422.1, TZM-bl, 48 h
[14] = system: Human immunodeficiency virus 1; test: Antiviral activity against Human immunodeficiency virus 1 3B infected in human TZM-bl cells assessed as inhibition of viral replication at 1 uM by luminometric analysis; assay type: functional, organism-based; details: TDE = time-dependent effect
[15] = system: Human immunodeficiency virus 1; test: Antiviral activity against Human immunodeficiency virus 1 Clade B WITO4160.33 infected in human TZM-bl cells after 2 days by luciferase reporter gene analysis; assay type: functional, organism-based; details: Human immunodeficiency virus 1, Clade B WITO4160.33, TZM-bl, 48 h
[16] = system: Human immunodeficiency virus 1; test: Antiviral activity against Human immunodeficiency virus 1 Clade B 7165.18 infected in human TZM-bl cells after 2 days by luciferase reporter gene analysis; assay type: functional, organism-based; details: Human immunodeficiency virus 1, Clade B 7165.18, TZM-bl, 48 h
[17] = system: Human immunodeficiency virus 1; test: Antiviral activity against Human immunodeficiency virus 1 Clade B 5768.4 infected in human TZM-bl cells after 2 days by luciferase reporter gene analysis; assay type: functional, organism-based; details: Human immunodeficiency virus 1, Clade B 5768.4, TZM-bl, 48 h
[18] = system: Human immunodeficiency virus 1; test: Competitive inhibition of Human immunodeficiency virus 1 3B gp120 glycan loop assessed as blockade of 2G12 antibody binding by ELISA
[19] = system: Human immunodeficiency virus 1; test: Antiviral activity against Human immunodeficiency virus 1 Clade B NL4.3 infected in human TZM-bl cells after 2 days by luciferase reporter gene analysis; assay type: functional, organism-based; details: Human immunodeficiency virus 1, Clade B NL4.3, TZM-bl, 48 h
[20] = system: Human immunodeficiency virus 1; test: Antiviral activity against Human immunodeficiency virus 1 Clade B SS1196.1 infected in human TZM-bl cells after 2 days by luciferase reporter gene analysis; assay type: functional, organism-based; details: Human immunodeficiency virus 1, Clade B SS1196.1, TZM-bl, 48 h
[21] = system: Human immunodeficiency virus 1; test: Competitive inhibition of Human immunodeficiency virus 1 3B gp120 V3 loop assessed as blockade of 39F antibody binding by ELISA
[22] = system: Human immunodeficiency virus 1; test: Antiviral activity against Human immunodeficiency virus 1 Clade C Du123.6 infected in human TZM-bl cells after 2 days by luciferase reporter gene analysis; assay type: functional, organism-based; details: Human immunodeficiency virus 1, Clade C Du123.6, TZM-bl, 48 h
[23] = as §1; assay type: cell-based

**Q.** For `CCCCOc1c2cc(C(=O)Nc3cc(C(=O)O)cc(C(=O)O)c3)cc1Cc1cc(C(=O)Nc3cc(C(=O)O)cc(C(=O)O)c3)cc(c1OCCCC)Cc1cc(C(=O)Nc3cc(C(=O)O)cc(C(=O)O)c3)cc(c1OCCCC)Cc1cc(C(=O)Nc3cc(C(=O)O)cc(C(=O)O)c3)cc(c1OCCCC)C2`, which IC50 [1] is on record?
**A.** The IC50 was 2700 nM.

**Q.** And the Activity [2]?
**A.** The Activity was “Active”.

**Q.** What about the inhibition [3] of the same compound?
**A.** Its inhibition is “Dose-dependent effect”.

**Q.** What about the Activity [4] of the same compound?
**A.** Its Activity is “Active”.

**Q.** And the inhibition (COS)?
**A.** The inhibition was “Dose-dependent effect”.

**Q.** And the Activity [5]?
**A.** Its Activity is “Active”.

**Q.** And the IC50 [6]?
**A.** The IC50 was 3900 nM.

**Q.** What about the IC50 [7] of the same compound?
**A.** Its IC50 is 3100 nM.

**Q.** What about the IC50 [8] of the same compound?
**A.** Its IC50 is 1900 nM.

**Q.** What about the Activity [9] of the same compound?
**A.** The Activity was “tde”.

**Q.** And the inhibition [10]?
**A.** The inhibition was “Active”.

**Q.** What about the Activity [11] of the same compound?
**A.** The Activity was “Active”.

**Q.** What about the IC50 [12] of the same compound?
**A.** Its IC50 is 3100 nM.

**Q.** What about the IC50 [13] of the same compound?
**A.** Its IC50 is 1800 nM.

**Q.** What about the Activity [14] of the same compound?
**A.** The Activity was “tde”.

**Q.** And the IC50 [15]?
**A.** The IC50 was 1800 nM.

**Q.** What about the IC50 [16] of the same compound?
**A.** Its IC50 is 4500 nM.

**Q.** And the IC50 [17]?
**A.** The IC50 was 4100 nM.

**Q.** What about the inhibition [18] of the same compound?
**A.** The inhibition was “inactive”.

**Q.** What about the IC50 [19] of the same compound?
**A.** Its IC50 is 650 nM.

**Q.** And the IC50 [20]?
**A.** The IC50 was 2800 nM.

**Q.** And the inhibition [21]?
**A.** The inhibition was “Active”.

**Q.** What about the IC50 [22] of the same compound?
**A.** Its IC50 is 1400 nM.

**Q.** For `CCCCOc1c2cc(C(=O)Nc3cc(C(=O)O)cc(C(=O)OCc4ccccc4)c3)cc1Cc1cc(C(=O)Nc3cc(C(=O)O)cc(C(=O)OCc4ccccc4)c3)cc(c1OCCCC)Cc1cc(C(=O)Nc3cc(C(=O)O)cc(C(=O)OCc4ccccc4)c3)cc(c1OCCCC)Cc1cc(C(=O)Nc3cc(C(=O)O)cc(C(=O)OCc4ccccc4)c3)cc(c1OCCCC)C2`, which inhibition [3] is on record?
**A.** Its inhibition is “inactive”.

**Q.** And the EC50 [23]?
**A.** Its EC50 is over 70000 nM.
